The record followed here is PubChem BioAssay (NCI).

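Interpolation was linear, between the two tested concentrations surrounding the appropriate level; five concentrations were tested over 48 hours in 96-well plates. The concentration for full growth arrest is given as TGI.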

Some test systems named below: 786-0 renal; HCT-116 colon; SNB-75 CNS; PC-3 prostate; M14 melanoma; MDA-MB-231 breast; HCC-2998 colon; UACC-257 melanoma; HOP-92 NSCLC; SF-539 CNS; HS 578T breast; OVCAR-3 ovarian; UACC-62 melanoma; NCI/ADR-RES ovarian; SN12C renal; MDA-N.
Experiment in all cases: NCI tumour cell line growth inhibition, 48 h

For the compound `CCOC(=O)c1nc2c(Cl)c3ncccc3cc2[nH]c1=O`, the TGI in the assay with 786-0 renal, in the assay with HCT-116 colon, with SNB-75 CNS, with PC-3 prostate, with M14 melanoma and with MDA-MB-231 breast was over 100 µM in each case. Further, the TGI in the assay with HCC-2998 colon is 43.8 µM; in the assay on UACC-257 melanoma it was over 100 µM; in the assay with HOP-92 NSCLC, over 100 µM; in the assay with SF-539 CNS it was over 100 µM; with HS 578T breast, over 100 µM; in the assay on OVCAR-3 ovarian, over 100 µM. For the same compound, the TGI with UACC-62 melanoma is 50.4 µM; in the assay on NCI/ADR-RES ovarian, over 100 µM.
Turning to `O=c1cc(-c2ccccc2)[nH]c2cc3c(cc12)OCO3`, the TGI with 786-0 renal is over 93 µM; in the assay with HCT-116 colon, over 29.8 µM; with SNB-75 CNS, 43.3 µM; with PC-3 prostate, over 100 µM; in the assay with M14 melanoma, over 80.2 µM; in the assay with MDA-MB-231 breast, over 100 µM. Besides, the TGI was over 100 µM with SN12C renal; 55.6 µM with HCC-2998 colon; over 100 µM in the assay on UACC-257 melanoma; over 100 µM in the assay with MDA-N; over 56.5 µM in the assay with HOP-92 NSCLC; 18.8 µM with SF-539 CNS. The TGI in the assay on HS 578T breast is over 100 µM; with OVCAR-3 ovarian, 22.2 µM; in the assay with UACC-62 melanoma, over 90.7 µM.
For `Cc1cccc2c1Oc1cc(Cl)ccc1C2NC(=O)CCN1CCOCC1` (stereo not given), the TGI with 786-0 renal, in the assay on HCT-116 colon, in the assay with SNB-75 CNS, in the assay with PC-3 prostate, in the assay with M14 melanoma and with MDA-MB-231 breast was over 100 µM throughout. The TGI is over 100 µM in the assay on SN12C renal; over 100 µM with HCC-2998 colon; over 100 µM with UACC-257 melanoma; over 100 µM with MDA-N; 95.2 µM in the assay on HOP-92 NSCLC; over 100 µM with SF-539 CNS. Also, the TGI in the assay on OVCAR-3 ovarian, in the assay with UACC-62 melanoma and with NCI/ADR-RES ovarian was over 100 µM each time.
Regarding `CCN1CCN(c2ccc(Nc3ccnc4ccc5nn(C)nc5c34)cc2)CC1`, the TGI stood at 22.6 µM with 786-0 renal; 18.1 µM in the assay with HCT-116 colon; 26.4 µM in the assay with SNB-75 CNS; 30 µM with M14 melanoma; 42.3 µM with SN12C renal; 26 µM in the assay on HCC-2998 colon. The TGI came out at 30.7 µM in the assay on UACC-257 melanoma; 26.5 µM with HOP-92 NSCLC; 27.2 µM with SF-539 CNS; 29.5 µM with OVCAR-3 ovarian; 30.8 µM in the assay with UACC-62 melanoma.
Regarding `O=C(C[n+]1ccccc1)NNC(=O)/C(=C/c1ccc2c(c1)OCO2)NC(=O)c1ccccc1`, the TGI was over 90.7 µM in the assay with 786-0 renal; over 100 µM with HCT-116 colon; over 95.9 µM with SNB-75 CNS; over 100 µM with M14 melanoma; over 100 µM in the assay on SN12C renal; over 100 µM in the assay with HCC-2998 colon. For the same compound, the TGI is over 100 µM in the assay with UACC-257 melanoma; over 100 µM in the assay with HOP-92 NSCLC; 75.1 µM with SF-539 CNS; over 100 µM in the assay on OVCAR-3 ovarian; over 100 µM in the assay with UACC-62 melanoma.
For `CCCCCC(C[N+]1(C)CCOCC1)C(=O)/C=C/c1ccccc1` (stereo not given), the TGI in the assay with 786-0 renal was found to be 4.26 µM; in the assay on HCT-116 colon, 11.7 µM; with SNB-75 CNS it was 15.7 µM; in the assay on M14 melanoma, 25.9 µM; in the assay with SN12C renal it was 28.6 µM; in the assay on HCC-2998 colon, 33.7 µM. For the same compound, the TGI turned out to be 27.6 µM with UACC-257 melanoma; 35.3 µM in the assay with HOP-92 NSCLC; 23.5 µM in the assay on SF-539 CNS; 27.4 µM with OVCAR-3 ovarian; 26.6 µM in the assay on UACC-62 melanoma.
Turning to `CC1=NC(=Cc2ccc(O)cc2)C(=O)N1n1c(-c2ccccc2)nc2ccccc2c1=O`, the TGI in the assay with 786-0 renal, with HCT-116 colon, in the assay on SNB-75 CNS, with PC-3 prostate, in the assay with M14 melanoma and in the assay with MDA-MB-231 breast was over 100 µM throughout. Also, the TGI in the assay on SN12C renal, in the assay on HCC-2998 colon, in the assay on UACC-257 melanoma, with MDA-N, with SF-539 CNS and in the assay with HS 578T breast was over 100 µM in each case. For the same compound, the TGI in the assay with UACC-62 melanoma was over 100 µM.
With `Clc1ccc(-c2c(C3=NCCN3)nnn2-c2ccc(Cl)cc2)cc1`, the TGI with 786-0 renal is 58.4 µM; with HCT-116 colon it was 32.3 µM; in the assay on SNB-75 CNS it was 48.3 µM; in the assay with M14 melanoma it was 31.7 µM; with SN12C renal it was over 100 µM; in the assay with HCC-2998 colon, 33.6 µM. Besides, the TGI is 33 µM with UACC-257 melanoma; 50.2 µM in the assay on HOP-92 NSCLC; 34.2 µM in the assay with SF-539 CNS; over 100 µM with OVCAR-3 ovarian; 32.7 µM with UACC-62 melanoma.
As for `C[C@]12CCC(=O)C=C1CC[C@@H]1C2CC[C@]2(C)c3nn(-c4ccc(F)cc4)nc3CC12` (stereo not given in full), the TGI with 786-0 renal, in the assay with HCT-116 colon, in the assay with SNB-75 CNS, in the assay on PC-3 prostate, in the assay on M14 melanoma and with MDA-MB-231 breast was over 100 µM in each case. For the same compound, the TGI in the assay with SN12C renal, with HCC-2998 colon, in the assay with UACC-257 melanoma, with MDA-N, with HOP-92 NSCLC and in the assay with SF-539 CNS was over 100 µM throughout. For the same compound, the TGI with HS 578T breast, with OVCAR-3 ovarian and in the assay on UACC-62 melanoma was over 100 µM throughout.
For `Cc1cn(C2CC(ON3C(=O)c4ccccc4C3=O)C(CO)O2)c(=O)[nH]c1=O` (stereo not given), the TGI with 786-0 renal, with HCT-116 colon, in the assay on SNB-75 CNS, in the assay with PC-3 prostate, in the assay with M14 melanoma and in the assay with SN12C renal was over 10 µM in each case. Further, the TGI with HCC-2998 colon, in the assay with UACC-257 melanoma, in the assay with HOP-92 NSCLC, in the assay with SF-539 CNS, with HS 578T breast and in the assay with OVCAR-3 ovarian was over 10 µM in each case. Besides, the TGI in the assay with UACC-62 melanoma and with NCI/ADR-RES ovarian was over 10 µM throughout.
